# Activity calls are given as the source filed them. No cut-off for these calls is given here.
# Tests used:
# Mus musculus [1] = assay: Anti-inflammatory activity against zymosan A-induced Sabra mouse model assessed as reduction in paw swelling at 5 to 25 mg/kg, ip measured after 6 hrs; type: functional, organism-based; conditions: dose 5-25 mg/kg
# Mus musculus [2] = assay: Anti-inflammatory activity against zymosan A-induced Sabra mouse model assessed as reduction in […] at 5 to 25 mg/kg, ip measured after 6 hrs; type: functional, organism-based; conditions: dose 5-25 mg/kg
# Mus musculus [3] = assay: Anti-inflammatory activity against zymosan A-induced Sabra mouse model assessed as reduction in TNF-alpha level administered intraperitoneally and measured after 24 hrs by ELISA analysis; type: functional, organism-based; conditions: route ip
# Mus musculus [4] = assay: Anti-inflammatory activity against zymosan A-induced Sabra mouse model assessed as reduction in paw swelling at 5 to 50 mg/kg, ip measured after 6 hrs; type: functional, organism-based; conditions: dose 5-50 mg/kg
# Mus musculus [5] = assay: Anti-inflammatory activity against zymosan A-induced Sabra mouse model assessed as reduction in pain sensation at 5 to 50 mg/kg, ip measured after 6 hrs; type: functional, organism-based; conditions: dose 5-50 mg/kg
# Mus musculus [6] = assay: Anti-inflammatory activity against zymosan A-induced Sabra mouse model assessed as reduction in TNF-alpha level at 5 to 50 mg/kg, ip measured after 24 hrs by ELSA analysis; type: functional, organism-based; conditions: dose 5-50 mg/kg
# Mus musculus [7] = assay: Anti-inflammatory activity against zymosan A-induced Sabra mouse model assessed as reduction in paw swelling at 10 to 25 mg/kg, ip measured after 6 hrs; type: functional, organism-based; conditions: dose 10-25 mg/kg
# Mus musculus [8] = assay: Anti-inflammatory activity against zymosan A-induced Sabra mouse model assessed as reduction in pain sensation at 10 to 25 mg/kg, ip measured after 6 hrs; type: functional, organism-based; conditions: dose 10-25 mg/kg
# Mus musculus [9] = assay: Anti-inflammatory activity against zymosan A-induced Sabra mouse model assessed as reduction in TNF-alpha level at 10 to 25 mg/kg, ip measured after 24 hrs by ELISA analysis; type: functional, organism-based; conditions: dose 10-25 mg/kg
# Mus musculus [10] = assay: Anti- inflammatory activity against C57BL/6 mouse model of LPS-induced peritonitis assessed as reduction in plasma TNF alpha level at 10 mg/kg, ip pre-administered for 60 mins followed by LPS-stimulation and measured after 90 mins by ELISA analysis; type: functional, organism-based; conditions: time 150.0 min
# Mus musculus [11] = assay: Anti- inflammatory activity against C57BL/6 mouse model of LPS-induced peritonitis assessed as reduction in plasma IL-1beta level at 10 mg/kg, ip pre-administered for 60 mins followed by LPS-stimulation and measured after 90 mins by ELISA analysis; type: functional, organism-based; conditions: time 150.0 min
# Mus musculus [12] = assay: Anti- inflammatory activity against C57BL/6 mouse model of LPS-induced peritonitis assessed as reduction in plasma IL-6 level at 10 mg/kg, ip pre-administered for 60 mins followed by LPS-stimulation and measured after 90 mins by ELISA analysis; type: functional, organism-based; conditions: time 150.0 min
# Mus musculus [13] = assay: Anti- inflammatory activity against C57BL/6 mouse model of LPS-induced peritonitis assessed as reduction in plasma IL-1beta level at 5 mg/kg, ip pre-administered for 60 mins followed by LPS-stimulation and measured after 90 mins by ELISA analysis; type: functional, organism-based; conditions: time 150.0 min
# Mus musculus [14] = assay: Anti- inflammatory activity against C57BL/6 mouse model of LPS-induced peritonitis assessed as reduction in plasma TNF alpha level at 5 mg/kg, ip pre-administered for 60 mins followed by LPS-stimulation and measured after 90 mins by ELISA analysis; type: functional, organism-based; conditions: time 150.0 min
# Mus musculus [15] = assay: Anti- inflammatory activity against C57BL/6 mouse model of LPS-induced peritonitis assessed as reduction in plasma IL-6 level at 5 mg/kg, ip pre-administered for 60 mins followed by LPS-stimulation and measured after 90 mins by ELISA analysis; type: functional, organism-based; conditions: time 150.0 min
# BMDM [16] = assay: Inhibition of IL-1beta mRNA expression in LPS-stimulated human bone-marrow derived macrophage cells at 5 uM preincubated with compound for 3 hrs followed by LPS stimulation for 3 hrs and measured 30 mins after ATP addition by qRT-PCR analysis; type: functional, cell-based; conditions: time 6.5 hrs
# BMDM [17] = assay: Inhibition of IL-1beta protein expression in LPS-stimulated human bone-marrow derived macrophage cells at 5 uM preincubated with compound for 3 hrs followed by LPS stimulation for 3 hrs and measured 30 mins after ATP addition by ELISA analysis; type: functional, cell-based; conditions: time 6.5 hrs
# Mus musculus [18] = assay: Anti-inflammatory activity against zymosan A-induced Sabra mouse model assessed as reduction in pain sensation administered intraperitoneally and measured after 6 hrs; type: functional, organism-based; conditions: dose 5-50 mg/kg, route ip
# Mus musculus [19] = assay: Anti-inflammatory activity against zymosan A-induced Sabra mouse model assessed as reduction in TNF-alpha level at 5 to 25 mg/kg, ip measured after 24 hrs by ELISA analysis; type: functional, organism-based; conditions: dose 5-25 mg/kg
structure (smiles),measurement,setting,value
C=C(C)[C@@H]1CCC(C)=C[C@H]1c1c(O)cc(O)c(C)c1CCCCC,Activity,Mus musculus [1],Active
same,Activity,Mus musculus [2],Active
same,Activity,Mus musculus [3],Dose-Dependent Effect
CCCCCc1cc(OC)c(C/C=C(\C)CCC=C(C)C)c(OC)c1C,Activity,Mus musculus [4],Active
same,Activity,Mus musculus [5],Active
same,Activity,Mus musculus [6],Active
C=C(C)[C@@H]1CCC(C)=C[C@H]1c1c(OC)cc(CCCCC)c(C)c1OC,Activity,Mus musculus [7],Active
same,Activity,Mus musculus [8],Active
same,Activity,Mus musculus [9],Active
same,Activity,Mus musculus [10],Active
same,Activity,Mus musculus [11],inactive
same,Activity,Mus musculus [12],inactive
CCCCCc1cc(O)c([C@@H]2C=C(C)CC[C@H]2C(C)C)c(O)c1C,Activity,Mus musculus [13],Active
same,Activity,Mus musculus [14],Active
same,Activity,Mus musculus [7],Active
same,Activity,Mus musculus [8],Active
same,Activity,Mus musculus [9],Active
same,Activity,Mus musculus [15],inactive
same,inhibition,BMDM [16],Active
same,inhibition,BMDM [17],Active
C=C(C)[C@@H]1CCC(C)=C[C@H]1c1c(O)c(C)c(CCCCC)c(C)c1O,Activity,Mus musculus [4],Active
same,Activity,Mus musculus [18],Dose-Dependent Effect
same,Activity,Mus musculus [6],Active
CCCCCc1cc(O)c(C/C=C(\C)CCC=C(C)C)c(O)c1C,Activity,Mus musculus [13],Active
same,Activity,Mus musculus [14],inactive
same,Activity,Mus musculus [1],Active
same,Activity,Mus musculus [2],Active
same,Activity,Mus musculus [19],Active
same,Activity,Mus musculus [15],inactive
C=C(C)[C@@H]1CCC(C)=C[C@H]1c1c(O)cc(CCCCC)c(C)c1O,Activity,Mus musculus [4],Active
same,Activity,Mus musculus [5],Active
same,Activity,Mus musculus [6],Active

# Reference: ChEMBL document CHEMBL5380864, “Novel Synthesis of C-Methylated Phytocannabinoids Bearing Anti-inflammatory Properties” (J Med Chem, 2023)
